We go through 5 molecules from article PMC3731359 (PLoS ONE, 2013).

Ends that are not written are not given here. * marks the point of attachment. Biotin = O=C1N[C@H]2[C@H](CS[C@H]2CCCCC(=O)*)N1

As a reminder, the Kd is the equilibrium constant for the complex coming apart.

The target of experiment [1] is T1, NAE (Homo sapiens, UniProt Q13564+Q8TBC4).
T1 construct: made in house; host or cells: E. coli BL21(DE3)pLysS
T1 sequence (Q8TBC4 22-463 limits assumed): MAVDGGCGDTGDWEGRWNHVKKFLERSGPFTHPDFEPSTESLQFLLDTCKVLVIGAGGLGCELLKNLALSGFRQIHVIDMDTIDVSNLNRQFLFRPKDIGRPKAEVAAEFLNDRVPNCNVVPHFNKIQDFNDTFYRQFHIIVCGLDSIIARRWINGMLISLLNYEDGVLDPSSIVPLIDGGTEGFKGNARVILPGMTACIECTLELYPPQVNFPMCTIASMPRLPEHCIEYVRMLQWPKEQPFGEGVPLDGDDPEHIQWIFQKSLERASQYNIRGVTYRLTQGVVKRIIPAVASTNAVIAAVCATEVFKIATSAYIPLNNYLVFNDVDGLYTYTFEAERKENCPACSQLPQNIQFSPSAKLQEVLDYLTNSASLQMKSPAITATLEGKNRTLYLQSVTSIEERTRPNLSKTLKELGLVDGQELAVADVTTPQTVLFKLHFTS
T1 sequence (Q13564 1-534 partner): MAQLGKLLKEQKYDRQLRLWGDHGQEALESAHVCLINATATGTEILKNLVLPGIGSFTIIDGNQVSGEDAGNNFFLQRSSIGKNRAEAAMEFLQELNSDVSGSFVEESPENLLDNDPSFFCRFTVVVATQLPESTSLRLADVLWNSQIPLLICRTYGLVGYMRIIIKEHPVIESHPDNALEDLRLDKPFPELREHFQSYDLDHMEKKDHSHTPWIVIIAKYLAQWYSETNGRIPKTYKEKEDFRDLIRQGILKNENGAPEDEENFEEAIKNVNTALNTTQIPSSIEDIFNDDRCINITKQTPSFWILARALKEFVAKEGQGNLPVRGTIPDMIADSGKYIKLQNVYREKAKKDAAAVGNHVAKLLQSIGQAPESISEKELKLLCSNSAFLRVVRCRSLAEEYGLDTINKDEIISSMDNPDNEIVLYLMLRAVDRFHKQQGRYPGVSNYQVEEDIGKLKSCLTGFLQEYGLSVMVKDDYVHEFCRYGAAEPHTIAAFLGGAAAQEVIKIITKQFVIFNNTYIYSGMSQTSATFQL
The following applies: Arg72Ala mutant of UB by site directed mutagenesis; cited from earlier work.

The test system of the next experiment is Ubc12 (E2). Briefly: Western blot: transfer of UB variants to Ubc12. Format: biochemical. The following applies: 5 µM HA-tagged protein, 1 µM NAE, 1 µM Ubc12, 1 µM cullin, 1 mM ATP, 1 h, room temperature, anti-HA Western blot. The procedure: (§1) Figure 6 Transfer of phage selected UB variants to NAE (E1), Ubc12 (E2), and cullin-3. HA-tagged wt UB, wt Nedd8 and UB variants were used in the assay. In the control reaction, either Ubc12 or cullin-3 in complex with Rbx1 was missing. The blots were probed with a mouse anti-HA antibody and a goat anti-mouse IgG antibody linked to HRP.
(§2) 20 µL of the reaction mixture were loaded on a 4–15% SDS-PAGE gel (Bio-Rad). After electrophoresis, the protein bands were electroblotted onto a piece of polyvinylidene fluoride membrane (Bio-Rad). The membrane was blocked with 3% BSA in TBS buffer for 1 hour followed by incubation with 3% BSA in TBS buffer containing 1∶500 diluted 200 µg/mL anti-HA antibody (Santa Cruz Biotechnology) and 1∶10,000 diluted anti-mouse horseradish peroxidase conjugate (Pierce) for 1 hour, respectively. The membrane was then washed 5 times with TBS-T buffer and 5 times with TBS buffer followed by detection with the ECL luminescent detection kit (GE Healthcare).
(A western blot detects proteins with antibodies after separation by electrophoresis.)

For another experiment, the system named is NAE (E1). Briefly: Western blot: formation of UB∼NAE thioester conjugates. It counts as biochemical. The following applies: 5 µM HA-tagged protein, 1 µM NAE, 1 mM ATP, 1 h, room temperature, anti-HA Western blot. The procedure: as §1, §2
For a further experiment, the system named is cullin-3. Briefly: Western blot: transfer of UB variants to cullin-3. The following applies: 5 µM HA-tagged protein, 1 µM NAE, 1 µM Ubc12, 1 µM cullin, 1 mM ATP, 1 h, room temperature, anti-HA Western blot. It counts as biochemical. How it is done:
as §1, §2

Another experiment has as its target NAE (Homo sapiens) (UniProt Q13564). The following applies: cited from earlier work.
Another experiment deals with UAE. The following applies: Ala72 of Nedd8 mutated to Arg; cited from earlier work. The text has this: As expected the two proteins also adopt very similar structures featuring the β-grasp fold. Their E1 enzymes are also homologous to each other in both peptide sequences and crystal structures, except that NAE is a heterodimer of two subunits, APPBP1 and Uba3, while UAE is composed of a single chain [8], [20], [21].

Experiment [2] deals with T1, NAE. The following applies: cited from earlier work. An excerpt: […] binds to the nucleotide binding pocket of NAE as an AMP analog with a sulfamate ...
The target in another experiment is T2, Ubc12 (UniProt P61081 1-183).
T2 construct: also called E2; source: expressed and purified as previously reported [33]
T2 sequence (looked up): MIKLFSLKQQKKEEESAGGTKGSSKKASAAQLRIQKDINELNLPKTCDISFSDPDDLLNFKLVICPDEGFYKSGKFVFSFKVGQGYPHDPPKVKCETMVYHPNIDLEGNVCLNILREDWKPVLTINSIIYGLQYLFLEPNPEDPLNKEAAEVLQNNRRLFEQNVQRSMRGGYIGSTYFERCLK
Briefly: thioester conjugate formation (SDS-PAGE, Western blot); 5 µM biotin labeled peptide with 1 µM NAE, 1 µM Ubc12 and 1 µM cullin, 1 mM ATP, 10 mM MgCl2, 50 µM DTT, TBS, 1 hour, room temperature; streptavidin-HRP blot; covalent conjugates. The following applies: both partners purified.

For the molecule “N26: UB variant with single Arg72Ala mutation, C-terminal sequence 71LALRGG76”, in the experiment with NAE [1], the “activity with NAE” value is on record as “previously found to be active with NAE”. Besides, the “transfer from NAE to Ubc12 (UB∼Ubc12 conjugates)” value in the experiment with Ubc12 (E2) is given as “efficiently forms UB∼Ubc12 conjugates”. For the same molecule, the “formation of UB∼NAE conjugates” value in the experiment with NAE (E1) is “can function as the wt Nedd8 for thioester formation with NAE and Ubc12”. The “transfer to cullin (cullin modification)” value in the experiment with cullin-3 is recorded as “substantial cullin modification at a level similar or exceeding that of wt Nedd8”.
For Nedd8 (from UniProt Q15843), in the experiment with NAE (Homo sapiens), the Kd was 8.75 µM.
With “Nedd8 mutant: Nedd8 with Ala72 mutated to Arg”, in the experiment on UAE, the “activation by UAE” value is given as “can be activated by UAE” and the “increase in affinity with UAE” value is 65 fold.
Regarding `NS(=O)(=O)OC[C@@H]1C[C@@H](n2ccc3c(N[C@H]4CCc5ccccc54)ncnc32)C[C@@H]1O` [MLN4924], the “inhibition of NAE” value on NAE [2] is “potent inhibitor of NAE”.

B1: biotin-pN26 (VLALRGG) (peptide)
peptide: {Biotin-LC-LC}-VLALRGG
notes: also called pN26 conjugated to biotin; source: synthetic peptide (EZBiolab), labelled with NHS-LC-LC-biotin, HPLC purified
For B1, the binding result with Ubc12 is “binds”.
